A value given as a limit tells only on which side of the number the result lay.

One assay has as its system Kuramochi cells. In words: BrdU cell proliferation assay. It counts as cell-based. The settings on record: 96 h, developed on day 4, read-out: BrdU - KURAMOCHI.1: IC50. As to the method:
A BrdU assay was used as a measure of proliferation based on the DNA replication process of proliferating cells. BrdU, a pyrimidine analog, is added to the cell culture and incorporated into the DNA of proliferating cells. The presence of the BrdU analog was then measured through a colorimetric ELISA. After fixation and permeabilization of cells, peroxidase-conjugated antibody recognizing BrdU is added and allowed to incubate, followed by thorough washing to remove unbound antibody. In order to quantify the amount of bound antibody, peroxidase substrate is added and produces a color that can be measured at 450 nm.
On day −1, Kuramochi cells (Sekisui XenoTech JCRB0098) were seeded at 2,000 cells/well in columns 2-12 of a 96 well plate (Corning, CLS3596) in 150 uL media and allowed to adhere overnight at 37 degree with 5% CO2. In order to assess specificity of the compounds, Kuramochi RB^KO cells were also plated and treated, as RB^KO cells were not expected to show a proliferative response to CCNE/CDK specific inhibitors.
On day 0, the source plate was prepared by adding 10 mM compounds and performing 3-fold serial dilutions for a 4-point dose response of each compound. Using a multichannel pipette, 2 μL of the contents of the source plate were stamped into an intermediate plate with 500 μL of RPMI 1640 Media, GlutaMAX Supplement (Life Technologies. 61870127) in each well of a Nunc 96 DeepWell™ plate, non-treated 96 DeepWell plate, 2 mL/well, sterile, natural. 60/cs (Sigma Z717274) and mixed thoroughly. 50 uL from row A of this intermediate plate were added to rows A-H of one plate of previously seeded Kuramochi cells, and each subsequent row of the intermediate plate was added to a full plate of cells.
On day 4, the plates were developed using the BrdU ELISA Cell Proliferation Assay according to manufacturer's instructions (Roche, 11647229001). Briefly, BrdU was diluted 1:100 in Gibco®. Opti-MEM® and 20 μL/well was added, shaken for 10 minutes at 350 rpm, and then returned to the incubator for 1 hour. Following incubation, the medium was discarded, and the cells were fixed by adding 200 μL of Fix/Denature solution. The anti-BrdU peroxidase antibody was diluted 1:1000 in OptiMEM, added at 100 μL/well, and incubated while shaking (350 rpm) for one hour. Three washes with PBS were performed to remove any unbound antibody, followed by the addition of 100 μL of substrate solution to each well. […] was then added to halt the reaction, and plates were read out using an Envision spectrophotometer (Perkin Elmer) set to read 450 nm absorbance. Background absorbance values from empty wells were subtracted from all samples and then normalized to DMSO treated wells.

The test system of assay [1] is Kuramochi cells labeled with mApple-H2B. As to the kind of experiment: IncuCyte cell proliferation assay. Type of assay: cell-based. Conditions: Kuramochi RB-WT, cell count 0 to 72 hours; method calls it GI50. The procedure:
IncuCyte® assay was used to measure the effect of disclosed compounds on cell proliferation. Fluorescent microscopy images of cells were taken immediately after compound treatment and 72 hours later. Image analysis software was used to obtain cell counts as a function of compound concentration. Kuramochi cells labeled with mApple-H2B were seeded on 384-well assay-ready plates. Plates were placed in an IncuCyte® (Sartorius) and scanned at 0 and 72 hours. IncuCyte® software was used to count the number of fluorescent nuclei in each well. The fold change in cell count from 0 to 72 hours in wells treated with increasing compounds concentrations (10 pts, 1/2 log dilution, 20 μM top concentration) was normalized to DMSO control wells. The normalized cell counts were fit with dose response curves and a GI50 was calculated.

In the next assay the target is CDK2/Cyclin E1 (Homo sapiens (Human), UniProt P24941). As to the kind of experiment: Caliper LabChip EZ Reader mobility shift assay. Type of assay: biochemical. The settings on record: 2.5 nM CDK2/Cyclin E1 (14-475), 100 μM ATP, 1.5 μM fluorescent peptide; read-out: Caliper Assay (CDK2/CCNE1): IC50. The procedure: Inhibition of CDK2/Cyclin E1 activity in the presence of compounds of the present disclosure was evaluated using a Caliper LabChip® EZ Reader mobility shift assay. In the assay, activated CDK2/Cyclin E1 catalyzes the phosphorylation of a fluorescently tagged peptide 5-FAM-QSPKKG-CONH2 (PerkinElmer, FL Peptide 18) which induces a difference in capillary electrophoresis mobility. The peptide substrate and product were measured, and the conversion ratio was used to determine the inhibition (as % activity and IC50 values) of CDK2/Cyclin E1. Reactions contained 50 mM HEPES pH 7.5, 10 mM MgCl2, 1 mM EDTA, 2 mM DTT, 0.01% Brij35, 0.5 mg/mL BSA, 0.1% DMSO, 2.5 nM CDK2/Cyclin E1 (14-475), 100 μM ATP, and 1.5 μM fluorescent peptide substrate.
Dose titrations of inhibitors in 100% DMSO were combined with 3.25 nM CDK2/Cyclin E1 (14-475) and 130 μM of ATP in reaction buffer. The mixtures were incubated for 30 minutes before the addition of fluorescent peptide substrate to initiate the kinase reaction. The final conditions were 2.5 nM CDK2/Cyclin E1 (14-475), 100 μM ATP, and 1.5 μM fluorescent peptide. The reactions were stopped after 100 minutes with the addition of EDTA (6 mM final EDTA concentration). The stopped reactions were analyzed on a Caliper LabChip® EZ Reader II. The conversion ratios were normalized to yield % activity, plotted against compound concentration, and fit to a four-parameter equation to determine the IC50 for each compound.

Consider `CNC(=O)[C@@H](NC(=O)[C@@H]1CN(C(=O)c2cnn(Cc3ccccc3)c2)CC12CN(c1nnn[nH]1)C2)[C@@H](C)OCC1CCCCC1` [Compound I-1, (S)-6-(1-Benzyl-1H-pyrazole-4-carbonyl)-N-((2S,3R)-3-(cyclohexylmethoxy)-1-(methylamino)-1-oxobutan-2-yl)-2-(1H-tetrazol-5-yl)-2,6-diazaspiro[3.4]octane-8-carboxamide], for which the IC50 in the assay on Kuramochi cells is greater than 10 µM; in assay [1], greater than 20 µM; on CDK2/Cyclin E1, greater than 10 µM.

On to `CNC(=O)[C@@H](NC(=O)[C@@H]1CN(C(=O)c2cnn(Cc3ccccc3)c2)CC12CN(c1ncco1)C2)[C@@H](C)OCC1CCCCC1` [Compound I-2, (S)-6-(1-benzyl-1H-pyrazole-4-carbonyl)-N-((2S,3R)-3-(cyclohexylmethoxy)-1-(methylamino)-1-oxobutan-2-yl)-2-(oxazol-2-yl)-2,6-diazaspiro[3.4]octane-8-carboxamide], for which the values for the IC50 (in the assay on Kuramochi cells; in assay [1]; on CDK2/Cyclin E1) were greater than 10 µM, greater than 20 µM and 0.1 to 1 µM, respectively.

On to `C[C@@H](OCC1CCCCC1)[C@H](NC(=O)[C@@H]1CN(c2cccc3cn[nH]c23)CC12CN(C(=O)[C@H]1CC1(C)C)C2)C(=O)N1CCCCC1` [Compound I-11, (S)-N-((2S,3R)-3-(cyclohexylmethoxy)-1-oxo-1-(piperidin-1-yl)butan-2-yl)-2-((S)-2,2-dimethylcyclopropanecarbonyl)-6-(1H-indazol-7-yl)-2,6-diazaspiro[3.4]octane-8-carboxamide], for which the IC50 (with Kuramochi cells; in assay [1]) was 0.5 to 5 µM in each case.

For `C[C@@H](OCC1CCCCC1)[C@H](NC(=O)[C@@H]1CN(c2nccc3cn[nH]c23)CC12CN(C(=O)[C@H]1CC1(C)C)C2)C(=O)N1CCCCC1` [Compound I-12, (S)-N-((2S,3R)-3-(cyclohexylmethoxy)-1-oxo-1-(piperidin-1-yl)butan-2-yl)-2-((S)-2,2-dimethylcyclopropane-1-carbonyl)-6-(1H-pyrazolo[3,4-c]pyridin-7-yl)-2,6-diazaspiro[3.4]octane-8-carboxamide 2,2,2-trifluoroacetate], the IC50 in the assay with Kuramochi cells and on CDK2/Cyclin E1 was greater than 10 µM in each case.

On to `C[C@@H](OCC12CCC(CC1)OC2)C(NC(=O)[C@@H]1CN(c2ncnc3ncsc23)CC12CN(C(=O)[C@H]1CC1(C)C)C2)C(=O)N1CCC(C(F)(F)F)CC1` (stereo partly drawn) [Compound I-30, (S)-N-((2S,3R)-3-((2-oxabicyclo[2.2.2]octan-4-yl)methoxy)-1-oxo-1-(4-(trifluoromethyl)piperidin-1-yl)butan-2-yl)-2-((S)-2,2-dimethylcyclopropane-1-carbonyl)-6-(thiazolo[4,5-d]pyrimidin-7-yl)-2,6-diazaspiro[3.4]octane-8-carboxamide], for which the IC50 in assay [1] was in the range of 0.5 to 5 µM; at CDK2/Cyclin E1, 0.01 to 0.1 µM.

For the molecule `CNC(=O)C(NC(=O)[C@@H]1CN(C(=O)c2cncs2)CC12CN(c1nc(C(F)(F)F)co1)C2)[C@@H](C)OCC12CCC(CC1)OC2` (stereo partly drawn) [Compound I-32, (S)-N-((2S,3R)-3-((2-oxabicyclo[2.2.2]octan-4-yl)methoxy)-1-(methylamino)-1-oxobutan-2-yl)-6-(thiazole-5-carbonyl)-2-(4-(trifluoromethyl)oxazol-2-yl)-2,6-diazaspiro[3.4]octane-8-carboxamide], the IC50 is greater than 20 µM in assay [1] and greater than 10 µM on CDK2/Cyclin E1.

As for `C[C@@H](OCC12CCC(CC1)OC2)[C@H](NC(=O)[C@@H]1CN(c2cc(F)cc3ncsc23)CC12CN(C(=O)[C@H]1CC1(C)C)C2)C(=O)N1CCC(c2ccncc2)CC1` [Compound I-33, N-((2S,3R)-3-(2-oxabicyclo[2.2.2]octan-4-ylmethoxy)-1-oxo-1-(4-(pyridin-4-yl)piperidin-1-yl)butan-2-yl)-2-((S)-2,2-dimethylcyclopropanecarbonyl)-6-(5-fluorobenzo[d]thiazol-7-yl)-2,6-diazaspiro[3.4]octane-8-carboxamide], the IC50 in assay [1] is 0.5 to 5 µM; on CDK2/Cyclin E1, no more than 0.01 µM.

For the molecule `C[C@@H](OCC1(CO)CC=CCC1)C(NC(=O)[C@@H]1CN(c2ncnc3ncsc23)CC12CN(C(=O)[C@H]1CC1(C)C)C2)C(=O)N1CCC(OC(F)(F)F)CC1` (stereo partly drawn) [Compound I-35, (8S)-2-((S)-2,2-dimethylcyclopropane-1-carbonyl)-N-((2S,3R)-3-((1-(hydroxymethyl)cyclohex-3-en-1-yl)methoxy)-1-oxo-1-(4-(trifluoromethoxy)piperidin-1-yl)butan-2-yl)-6-(thiazolo[4,5-d]pyrimidin-7-yl)-2,6-diazaspiro[3.4]octane-8-carboxamide], the values for the IC50 (in assay [1]; on CDK2/Cyclin E1) were greater than 20 µM and 0.01 to 0.1 µM, respectively.

Take `C[C@@H](OCC1(CO)CC=CCC1)[C@H](NC(=O)[C@@H]1CN(c2ncnc3ncsc23)CC12CN(C(=O)[C@H]1CC1(C)C)C2)C(=O)N1CCC(C(F)(F)F)CC1` (stereo partly drawn) [Compound I-36, (8S)-2-((S)-2,2-dimethylcyclopropane-1-carbonyl)-N-((2S,3R)-3-((1-(hydroxymethyl)cyclohex-3-en-1-yl)methoxy)-1-oxo-1-(4-(trifluoromethyl)piperidin-1-yl)butan-2-yl)-6-(thiazolo[4,5-d]pyrimidin-7-yl)-2,6-diazaspiro[3.4]octane-8-carboxamide]: the IC50 in assay [1] was greater than 20 µM; at CDK2/Cyclin E1, 0.01 to 0.1 µM.

For `C[C@@H](OCC1(CO)CC=CCC1)[C@H](NC(=O)[C@@H]1CN(c2ncnc3ncsc23)CC12CN(C(=O)[C@H]1CC1(C)C)C2)C(=O)N1CC2(CCOCC2)C1` (stereo partly drawn) [Compound I-37, (8S)-2-((S)-2,2-dimethylcyclopropane-1-carbonyl)-N-((2S,3R)-3-((1-(hydroxymethyl)cyclohex-3-en-1-yl)methoxy)-1-oxo-1-(7-oxa-2-azaspiro[3.5]nonan-2-yl)butan-2-yl)-6-(thiazolo[4,5-d]pyrimidin-7-yl)-2,6-diazaspiro[3.4]octane-8-carboxamide], the values for the IC50 (in assay [1]; at CDK2/Cyclin E1) were greater than 20 µM and 0.1 to 1 µM, respectively.

Regarding `COC[C@H]1CCCN(C(=O)[C@@H](NC(=O)[C@H]2CN(c3nc(C(F)(F)F)cs3)CC23CN(C(=O)[C@H]2CC2(C)C)C3)[C@@H](C)OCC23CCC(CC2)OC3)C1` [I-17 2nd, N-((2S,3R)-3-(2-oxabicyclo[2.2.2]octan-4-ylmethoxy)-1-((S)-3-(methoxymethyl)piperidin-1-yl)-1-oxobutan-2-yl)-2-((S)-2,2-dimethylcyclopropanecarbonyl)-6-(4-(trifluoromethyl)thiazol-2-yl)-2,6-diazaspiro[3.4]octane-8-carboxamide], the IC50 in assay [1] was greater than 20 µM; at CDK2/Cyclin E1, greater than 10 µM.

These data come from patent US20260014146A1, “CDK2 INHIBITORS AND METHODS OF USING THE SAME” (Cedilla Therapeutics, Inc., priority 2022, published 2026).
